Measured values reported in patent US20040176431A1, “Antiproliferative 2-(sulfo-phenyl)-aminothiazole derivatives and pharmaceutical compositions, and methods for their use” (Pfizer, Inc., priority 2003, published 2004).

Target: T1, CDK4/cyclin D3 (Homo sapiens, UniProt P11802)
T1 construct: made in house; host or cells: insect cells (baculovirus co-infection)
Assay: Inhibition of CDK4/Cyclin D retinoblastoma kinase activity
Assay type: biochemical
Conditions: for inhibition at 0.1 µM: test compound at 0.1 μM, read-out: % Inhib CDK4/D @ 0.1 μM; for inhibition at 1 µM: test compound at 1 μM (head line shifted: 'mM' printed beside 'Structure'), read-out: % Inhib CDK4/D @ 1 μM; for inhibition at 0.03 µM: test compound at 0.03 (unit cell empty, head line shifted; μM), read-out: % Inhib CDK4/D @ 0.03
Method: Cyclin-dependent kinase activity was measured by quantifying the enzyme-catalyzed, time-dependent incorporation of radioactive phosphate from [^32P]ATP or [^33P]ATP into a protein substrate. Unless noted otherwise, assays were performed in 96-well plates in a total volume of 50 μL, in the presence of 10 mM HEPES (N-[2-hydroxyethyl]piperazine-N′-[2-ethanesulfonic acid]) (pH 7.4), 10 mM MgCl2, 25 μM adenosine triphosphate (ATP), 1 mg/mL ovalbumin, 5 μg/mL leupeptin, 1 mM dithiothreitol, 10 mM β-glycerophosphate, 0.1 mM sodium vanadate, 1 mM sodium fluoride, 2.5 mM ethylene glycol-bis(β-aminoethyl ether)-N,N,N′N′-tetraacetic acid (EGTA), 2% (v/v) dimethylsulfoxide, and 0.03-0.4 μCi [^32/33P]ATP per reaction. Reactions were initiated with enzyme, incubated at 30° C., and terminated after 20 minutes by the addition of ethylenediaminetetraacetic acid (EDTA) to 250 mM. The phosphorylated substrate was then captured on a nitrocellulose or phosphocellulose membrane using a 96-well filtration manifold, and unincorporated radioactivity was removed by repeated washing with 0.85% phosphoric acid. Radioactivity was quantified by exposing the dried membranes to a phosphorimager.
Inhibition was measured relative to control wells that contained all reaction components including 2% (v/v) DMSO but no compound, after subtraction of background radioactivity measured in the absence of enzyme. Apparent Ki values of discrete compounds were measured by assaying enzyme activity in the presence of different inhibitor compound concentrations and subtracting the background radioactivity measured in the absence of enzyme. The kinetic parameters (kcat, Km for ATP) were measured for each enzyme under the usual assay conditions by determining the dependence of initial rates on ATP concentration. Inhibition data were fit to an equation for competitive inhibition using Kaleidagraph (Synergy Software), or were fit to an equation for competitive tight-binding inhibition using the software KineTic (BioKin, Ltd.).
A complex of human CDK4 and genetically truncated (1-264) cyclin D3 was purified using traditional biochemical chromatographic techniques from insect cells that had been co-infected with the corresponding baculovirus expression vectors (see e.g., Meijer and Kim, “Chemical Inhibitors of Cyclin-Dependent Kinases,” Methods in Enzymol., 283, 113-128 (1997)). The enzyme complex (5 nM) was assayed with 0.3-0.5 μg of purified recombinant retinoblastoma protein fragment (Rb) as a substrate. The engineered Rb fragment (residues 386-928 of the native retinoblastoma protein; 62.3 kDa) contains the majority of the phosphorylation sites found in the native 106-kDa protein, as well as a tag of six histidine residues for ease of purification. Phosphorylated Rb substrate was captured by microfiltration on a nitrocellulose membrane and quantified using a phosphorimager as described above. For measurement of tight-binding inhibitors, the assay duration was extended to 60 minutes, during which the time-dependence of product formation was linear and initial rate conditions were met.

T1 sequence (P11802 whole entry): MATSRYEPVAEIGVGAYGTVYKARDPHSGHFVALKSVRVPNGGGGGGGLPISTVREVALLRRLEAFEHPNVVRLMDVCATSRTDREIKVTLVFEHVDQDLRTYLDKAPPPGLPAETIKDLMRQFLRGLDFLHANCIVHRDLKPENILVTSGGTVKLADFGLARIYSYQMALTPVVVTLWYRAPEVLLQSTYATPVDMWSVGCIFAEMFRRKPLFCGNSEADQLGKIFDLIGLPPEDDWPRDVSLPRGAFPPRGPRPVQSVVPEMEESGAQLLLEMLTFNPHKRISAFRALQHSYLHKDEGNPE
T1 sequence (P30281 1-264 partner limits assumed): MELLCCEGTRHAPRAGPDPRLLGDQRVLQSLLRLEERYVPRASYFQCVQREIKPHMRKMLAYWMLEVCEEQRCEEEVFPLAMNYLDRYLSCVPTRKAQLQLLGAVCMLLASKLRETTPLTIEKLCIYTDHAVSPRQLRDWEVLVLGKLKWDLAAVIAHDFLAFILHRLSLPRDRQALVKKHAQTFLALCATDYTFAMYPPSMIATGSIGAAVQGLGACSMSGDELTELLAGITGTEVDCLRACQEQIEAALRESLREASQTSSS

Structure (SMILES) | inhibition at 0.1 µM | inhibition at 1 µM | inhibition at 0.03 µM
CCCSc1cccc(Nc2nc(N)c(C(=O)c3c(Cl)cccc3Cl)s2)c1 [DD(65)] | 7% | 51.1% | 6.5%
COC(=O)CSc1cccc(Nc2nc(N)c(C(=O)c3c(Cl)cccc3Cl)s2)c1 [DD(66)] | 23% | 77.1% | 18%
CN1CCCC(CSc2cccc(Nc3nc(N)c(C(=O)c4c(Cl)cccc4Cl)s3)c2)C1 (stereo not drawn) [DD(67)] | 14% | 49.1% | 4.3%
NC(=O)CCSc1cccc(Nc2nc(N)c(C(=O)c3c(Cl)cccc3Cl)s2)c1 [DD(68)] | 52% | 77.4% | 25%
Nc1nc(Nc2cccc(SCCO)c2)sc1C(=O)c1c(Cl)cccc1Cl [DD(69)] | 41% | 78.4% | 16%
CC(C)CCCSc1cccc(Nc2nc(N)c(C(=O)c3c(Cl)cccc3Cl)s2)c1 [DD(70)] | 16% | 5.3% | 93%
CC(C)CCOC(=O)CSc1cccc(Nc2nc(N)c(C(=O)c3c(Cl)cccc3Cl)s2)c1 [DD(71)] | 6.9% | 36% | 77%
CN(C)CCSc1cccc(Nc2nc(N)c(C(=O)c3c(Cl)cccc3Cl)s2)c1 [DD(72)] | 25% | 69% | -1.1%
CCOCCSc1cccc(Nc2nc(N)c(C(=O)c3c(Cl)cccc3Cl)s2)c1 [DD(73)] | 31% | 73.7% | 11%
Nc1nc(Nc2cccc(SCC(O)CO)c2)sc1C(=O)c1c(Cl)cccc1Cl (stereo not drawn) [DD(74)] | 59% | 85.7% | 28%
Nc1nc(Nc2cccc(SCc3ccncc3)c2)sc1C(=O)c1c(Cl)cccc1Cl [DD(75)] | 29% | 66.5% | 18%
CCC(CC)CSc1cccc(Nc2nc(N)c(C(=O)c3c(Cl)cccc3Cl)s2)c1 [DD(76)] | 9.6% | 29.5% | 19%
CC(=O)OCCSc1cccc(Nc2nc(N)c(C(=O)c3c(Cl)cccc3Cl)s2)c1 [DD(77)] | 30% | 71.9% | 23%
CC(C)OC(=O)CCSc1cccc(Nc2nc(N)c(C(=O)c3c(Cl)cccc3Cl)s2)c1 [DD(78)] | 22% | 36.2% | 13%
Nc1nc(Nc2cccc(SCCN3CCOCC3)c2)sc1C(=O)c1c(Cl)cccc1Cl [DD(79)] | 4.3% | 62.3% | 9.1%
CC(C)(CO)CSc1cccc(Nc2nc(N)c(C(=O)c3c(Cl)cccc3Cl)s2)c1 [DD(80)] | 1.5% | 56% | 1.2%
CCN(CC)C(=O)C[S+]([O-])c1ccc(Nc2nc(N)c(C(=O)c3c(Cl)cccc3Cl)s2)cc1 (stereo not drawn) [DD(81)] | 21% | 57.4% | -21%
Cc1noc(C)c1C[S+]([O-])c1ccc(Nc2nc(N)c(C(=O)c3c(Cl)cccc3Cl)s2)cc1 (stereo not drawn) [DD(82)] | -4% | 72.3% | -3.3%
CC(CN(C)C)C[S+]([O-])c1ccc(Nc2nc(N)c(C(=O)c3c(Cl)cccc3Cl)s2)cc1 (stereo not drawn) [DD(83)] | 31% | 43% | -17%
COC(=O)/C=C/C[S+]([O-])c1ccc(Nc2nc(N)c(C(=O)c3c(Cl)cccc3Cl)s2)cc1 (stereo not drawn) [DD(84)] | 26% | 45.7% | -5.6%
Nc1nc(Nc2ccc([S+]([O-])CCCO)cc2)sc1C(=O)c1c(Cl)cccc1Cl (stereo not drawn) [DD(85)] | 49% | 76.8% | 3.7%
C=CCC[S+]([O-])c1ccc(Nc2nc(N)c(C(=O)c3c(Cl)cccc3Cl)s2)cc1 (stereo not drawn) [DD(86)] | 36% | 62.5% | -9.8%
